Reference: ChEMBL document CHEMBL2029327, “Synthetic menthyl α/β-(1→6)-diglucopyranosides-induced cell death in human leukemia cells is dependent on caspases” (Bioorg Med Chem Lett, 2012)
Calls of active or inactive are those of the source. The rule behind the calls is not given here.

Experiments:
[1] = tested on: U-937; assay: Cytotoxicity against human U937 cells assessed as morphological changes at 10 uM after 24 hrs by inverted phase-contrast microscopic analysis; type: functional, cell-based
[2] = tested on: U-937; assay: Cytotoxicity against human U937 cells after 72 hrs by MTT assay; type: functional, cell-based; details: for IC50: U-937, 72 h
[3] = tested on: MCF7; assay: Cytotoxicity against human MCF7 cells assessed as morphological changes at 10 uM after 24 hrs by inverted phase-contrast microscopic analysis; type: functional, cell-based
[4] = tested on: U-937; assay: Cytotoxicity against human U937 cells assessed as reduction in cell number at 10 uM after 24 hrs by inverted phase-contrast microscopic analysis; type: functional, cell-based
[5] = tested on: MOLT-3; assay: Cytotoxicity against human MOLT3 cells after 72 hrs by MTT assay; type: functional, cell-based; details: for IC50: MOLT-3, 72 h
[6] = tested on: MOLT-3; assay: Cytotoxicity against human MOLT3 cells assessed as reduction in cell number at 10 uM after 24 hrs by inverted phase-contrast microscopic analysis; type: functional, cell-based
[7] = tested on: HL-60; assay: Cytotoxicity against human HL60 cells after 72 hrs by MTT assay; type: functional, cell-based; details: for IC50: HL-60, 72 h
[8] = tested on: HL-60; assay: Cytotoxicity against human HL60 cells assessed as reduction in cell number at 10 uM after 24 hrs by inverted phase-contrast microscopic analysis; type: functional, cell-based
[9] = tested on: MOLT-3; assay: Induction of apoptosis in human MOLT3 cells assessed as […] hydrolysis of chromatin at 10 uM after 24 hrs by agarose gel electrophoretic analysis; type: functional, cell-based
[10] = tested on: MCF7; assay: Cytotoxicity against human MCF7 cells after 72 hrs by MTT assay; type: functional, cell-based; details: for IC50: MCF7, 72 h
[11] = tested on: HL-60; assay: Cytotoxicity against human HL60 cells assessed as morphological changes at 10 uM after 24 hrs by inverted phase-contrast microscopic analysis; type: functional, cell-based
[12] = tested on: U-937; assay: Induction of apoptosis in human U937 cells assessed as […] hydrolysis of chromatin at 10 uM after 24 hrs by agarose gel electrophoretic analysis; type: functional, cell-based
[13] = tested on: MOLT-3; assay: Induction of apoptosis in human MOLT3 cells assessed as increase in chromatin condensation at 10 uM after 24 hrs by Hoechst staining-based flow cytometric analysis; type: functional, cell-based
[14] = tested on: HL-60; assay: Induction of apoptosis in human HL60 cells assessed as […] hydrolysis of chromatin at 10 uM after 24 hrs by agarose gel electrophoretic analysis; type: functional, cell-based
[15] = tested on: U-937; assay: Induction of apoptosis in human U937 cells assessed as increase in chromatin condensation at 10 uM after 24 hrs by Hoechst staining-based flow cytometric analysis; type: functional, cell-based
[16] = tested on: MOLT-3; assay: Cytotoxicity against human MOLT3 cells assessed as morphological changes at 10 uM after 24 hrs by inverted phase-contrast microscopic analysis; type: functional, cell-based
[17] = tested on: HL-60; assay: Induction of apoptosis in human HL60 cells assessed as increase in chromatin condensation at 10 uM after 24 hrs by Hoechst staining-based flow cytometric analysis; type: functional, cell-based
[18] = tested on: MOLT-3; assay: Induction of apoptosis in human MOLT3 cells assessed as increase in apoptotic cells at 10 uM after 24 hrs by propidium iodide staining-based flow cytometric analysis (reference value: 3.1 /- 0.7%); type: functional
[19] = tested on: U-937; assay: Induction of apoptosis in human U937 cells assessed as increase in apoptotic cells at 10 uM after 24 hrs by propidium iodide staining-based flow cytometric analysis (reference value: 2.3 /- 0.4%); type: functional

## CC(C)[C@@H]1CC[C@@H](C)C[C@H]1O[C@@H]1O[C@H](CO[C@@H]2O[C@H](COC(=O)c3ccc(Br)cc3)[C@@H](OC(=O)c3ccc(Br)cc3)[C@H](O)[C@H]2O)[C@@H](O)[C@H](O)[C@H]1O
[1]
  Activity: Active
[2]
  Activity: Dose-dependent effect
  IC50: 9.2 µM
[3]
  Activity: Active
[4]
  Activity: Active
[5]
  Activity: Dose-dependent effect
  IC50: 11.4 µM
[6]
  Activity: Active
[7]
  Activity: Dose-dependent effect
  IC50: 7 µM
[8]
  Activity: Active
[9]
  Activity: Active
[10]
  Activity: Dose-dependent effect
  IC50: 12.9 µM
[11]
  Activity: Active
[12]
  Activity: Active
[13]
  Activity: Active
[14]
  Activity: Active
[15]
  Activity: Active
[16]
  Activity: Active
[17]
  Activity: Active

## CC(C)[C@H]1CC[C@H](C)C[C@@H]1O[C@H]1O[C@H](CO[C@@H]2O[C@H](COC(=O)c3ccc(Br)cc3)[C@@H](OC(=O)c3ccc(Br)cc3)[C@H](O)[C@H]2O)[C@@H](O)[C@H](O)[C@H]1O
[1]
  Activity: Active
[2]
  Activity: Dose-dependent effect
  IC50: 6.9 µM
[18]
  Activity: 69.5%
[3]
  Activity: Active
[19]
  Activity: 46%
[4]
  Activity: Active
[5]
  Activity: Dose-dependent effect
  IC50: 5.8 µM
[6]
  Activity: Active
[7]
  Activity: Dose-dependent effect
  IC50: 7.3 µM
[8]
  Activity: Active
[9]
  Activity: Active
[10]
  Activity: Dose-dependent effect
  IC50: 6.1 µM
[11]
  Activity: Active
[12]
  Activity: Active
[13]
  Activity: Active
[14]
  Activity: Active
[15]
  Activity: Active
[16]
  Activity: Active
[17]
  Activity: Active
